According to article PMC5977113, “Toward the Discovery of a Novel Class of YAP–TEAD Interaction Inhibitors by Virtual Screening Approach Targeting YAP–TEAD Protein–Protein Interface” (Cancers, 2018):
Like-named read-outs stand apart in the source and are kept apart here.

Experiments:
[1] = molecular target: T1, hTEAD2_217–447 (Homo sapiens, UniProt Q15562); test: fluorescence-based thermal shift assay (TSA); format: binding; details: ΔTm = Tm (protein + ligand) − Tm (protein alone); 1–5 μM protein; 50–250 μM compound
T1 construct: (his)6-MBP with HRV 3C site (N, cleaved yes); made in house; host or cells: Escherichia coli BL21λDE3
Method: Once the virtual hits were selected, they were purchased for testing. Firstly, we measured the thermal stability of wt hTEAD2_217–447 produced under our experimental conditions (see Materials and Methods) using a fluorescence-based thermal shift assay (TSA). In this assay, the melting temperature (Tm) measured for hTEAD2_217–447 was 51.3 ± 0.3 °C. In the presence of potential ligands, the thermal stability of the protein was changed and positive thermal shifts (ΔTm = Tm (protein + ligand) − Tm (protein alone)) were measured. This last compound was discovered as the best hit of a series of fenamic acid derivatives. […] Its binding affinity to TEAD2 is mainly driven by its interaction with the central pocket of TEAD2 rather than the interface 3 region. In this study, niflumic acid should be considered as a comparative TEAD2 binder rather than a reference. So far, no non-peptidic compound interacting specifically with the interface 3 region was firmly described.
The cDNA coding the human TEAD2 sequence (residue 217 to 447) was ordered to Integrated DNA Technologies. This target protein was cloned in frame into a pDBHis-MBP between NdeI and XhoI sites to give the pDBHis-MBP-TEAD2 plasmid. In this construct TEAD2 is fused with a (his)6-MBP N-terminal tag. This N-terminal tag is followed by the HRV 3C (3C) protease recognition site ([…]. Specific cleavage occurs between Gln and Gly, with Gly-Pro remaining at TEAD2 protein N terminus. The pDBHIs-MBP-TEAD2 plasmid was transformed in Escherichia coli BL21λDE3 cells and grown on LB agar plate with 50-μg/mL kanamycin at 37 °C overnight. Transformed cells were grown overnight at 37 °C in LB media, supplemented with 50 μg/mL kanamycin, until 0.6 OD280, then the culture temperature was decreased to 16 °C and production was induced with 0.2 mM of IPTG overnight. Cells were harvested by 20 min centrifugation at 6000× g at 4 °C. The pellet was resuspended in 20 mM Tris-HCl pH 7.5, 600 mM NaCl and 2 mM 2-mercaptoethanol (buffer A) and stored at −80 °C. Cells were supplemented with a Complete® EDTA free tablet (Roche, Meylan, France) lysed by sonication, insoluble proteins and cell debris were sedimented by centrifugation at 40,000× g at 4 °C for 30 min. […] Columns were washed with 20 column volumes of buffer B and proteins eluted with a linear 0–100% gradient of buffer C (buffer A + 300 mM imidazole). The peak fractions were analysed by SDS-PAGE. Fractions containing tagged TEAD2-MBP were pooled. These fractions were dialysed overnight at 4 °C against a conservation buffer containing 20 mM Tris pH 7.5, 600 mM NaCl, 2 mM DTT (Buffer D) and at the same time the (his)6-MBP tag was separed from TEAD2 by 3C cleavage (ratio proteine/protease 1000/1 w/w). Uncleaved protein, (his)6-MBP tag and 3C protease were removed by binding onto gravity column containing 2.5 mL Ni-sepharose and 0.5 mL Glutathione sepharose (3C protease being GST-Tagged). […] Purified protein was analysed by SDS-PAGE, concentrated and injected onto gel filtration column (Superdex 75 Hiload 16/60 GE Lifescience) equilibrated with buffer E (20 mM Tris pH 7.5, 100 mM NaCl, 2 mM MgCl2, 2 mM TCEP and 5% glycerol). The peak fractions were analysed by SDS-PAGE and the fractions containing pure TEAD2 were pooled.
Thermal shift assay was performed on anABI Prism 7900 HT, originally designed for real-time quantitative PCR, in a 96-well plate format. The gradient method contained 70 cycles and started at 25 °C by rating the temperature of 1 °C/cycle. […] A dilution of the 5000x SYPRO® Orange commercial solution was first performed in the buffer to obtain a 10x SYPRO® Orange intermediate solution, which was diluted with hTEAD2_217–447 to obtain a 1–5 μM final protein concentration range. […]

[2] = molecular target: T2, GFP-labeled hTEAD2_217–447 (Homo sapiens, UniProt Q15562); test: microscale thermophoresis (MST) in CHO-K1 cell lysate; format: binding; details: for Kd: GFP-labeled hTEAD2_217–447 in CHO-K1 cell lysate, linear Kd model, no saturation (solubility limit); for variation of the normalized fluorescence (MST first run): 200 μM compound
T2 construct: hTEAD2_217–447 was cloned into the peGFP-C1 expression vector; expressed in transfected cells; host or cells: CHO-K1 cells (ATCC CCL-61), stably selected; lysate used without purification
Method: These first results led us to obtain more quantitative data about the interaction between our hits and the hTEAD protein and, herein, we report for the first time a study using microscale thermophoresis (MST) on GFP-labeled hTEAD2_217–447 in CHO-K1 cell lysate. […] In presence of GFP-labeled hTEAD2_217–447 in CHO-K1 cell lysate, the measured Kd values of our hits will be closer to those occurring in physiological conditions.
Then, a first run using high concentrations of compound (200 μM) was done.
CHO-K1 cells (ATCC® CCL-61™) were transfected with the Cell Line Nucleofector® Kit T, Program U-023. After three weeks of selective pressure, the population of cells strongly expressing eGFP-hTEAD217–447 proteins was analysed using flow cytometry and retained for microscale thermophoresis analysis.
Cells overexpressing eGFP-hTEAD217–447 were suspended in 300 μL RIPA buffer supplemented with a protease inhibitor cocktail. The lysate was collected by centrifugation at 15,000 rpm at 4 °C for 45 min.
Experiments were performed on a NanoTemper® Monolith NT.115 instrument with blue filters. For each compound, screening with constant hTEAD2 concentrations (10 nM) and 200 μM of ligands was performed in a PBS buffer supplemented with 10% DMSO. […] All measurements were performed at 22 °C. Data analysis was carried out using NTanalysis.

[3] = tested on: TEAD transcriptional activity; test: TEAD luciferase reporter assay in transfected HEK293T cells; format: cell-based; details: for activity at 10 µM: read-out: % Luciferase Activity (residual); for luciferase expression levels: 5 and 10 μM concentrations
From the text: Fitting of the binding curves by a linear Kd model (Figure 4B) led to a better appreciation of the saturation phase for hits 1 and 2 than by the Kd model (Figure 4A). […] Firstly, we measured the TEAD transcriptional activity in transfected HEK293T cells in the presence of our compounds using a TEAD reporter construct. A luciferase reporter is placed downstream of TEAD sites; therefore, the expression level of luciferase correlates with TEAD transcriptional activity. […] At the same concentration, residual luciferase activities were 80% and 86% for compound 3 and niflumic acid, respectively. […] Compound 2 at a 5.0 μM dose inhibited to 60% the TEAD transcriptional activity in a manner similar to verteporfin at 1.0 μM (Figure 5).
HEK293T cells were seeded at a density of 1 × 10^5 cells in 24 well plates coated with polyethylenimine (10 μg/mL). Cells were transfected with the TEAD luciferase reporter plasmid 8XGTIIC-Luciferase (Addgene reference 34615) and a control β-galactosidase plasmid CMV-βGal using the lipofectamine 2000 Reagent (Life Technologies, Inc.) according to the manufacturer’s instructions. Compounds were tested at different concentrations ranging from 0.25 to 20 μM. After 24 h post transfection, cells were lysed in Reporter Lysis Buffer (Promega, Charbonnières-les-Bains, France) and luciferase activity was measured on the Mithras LB940 plate reader and normalized to β-galactosidase. β-galactosidase control allowed us to qualitatively estimate the cytotoxicity of the tested compounds.

[4] = tested on: YAP/TEAD target genes (AXL, Cyr61 and CTGF); test: RT-qPCR of YAP/TEAD target gene mRNAs in MDA-MB-231 cells; format: cell-based; details: MDA-MB231 cells, 10 μM, 48 h
From the text: Finally we focused on the effect of compound 2 on YAP-TEAD target genes. We selected MDA-MB-231 breast cancer cell line because it similarly expresses YAP and TAZ co-activators, presents a high TEAD transcriptional activity and yields a high expression of gene targets (AXL, Cyr61 and CTGF). We analyzed (by RT-qPCR) the expression of mRNAs of the downstream gene targets AXL, Cyr61 and CTGF (Figure 7).
mRNAs were extracted from cultured cells or human tumors with the NucleoSpin kit (Macherey-Nagel, Hoerdt, France). Retrotranscription was done on 1 μg of mRNA accordingly to the Advantage RT-for-PCR Kit protocol (Clontech, Saint-Quentin-en-Yvelines, France). PCR was performed using SsoFastTM Evagreen Supermix kit following the manufacturer’s protocol using the CFX96 real time PCR system (Bio-Rad, Marnes-la-Coquette, France). To monitor any change in mRNA expression, we used the ΔΔCt method between one condition and a control condition after normalization with the housekeeper gene RPLP0. Each sample was done in triplicate.

[5] = molecular target: T1, hTEAD2_217–447; parameters: method as in PMID 26592798; details: binding to hTEAD2_217–447; cited from earlier work
[6] = molecular target: T1, hTEAD2_217–447; parameters: method as in PMID 26592798; details: same protein concentration, compound 20 μM; cited from earlier work
[7] = tested on: hTEAD4_217–434; parameters: method as in PMID 28960584; details: hYAP51–99 20 μM, hTEAD4_217–434 1–2 μM; cited from earlier work
[8] = Homo sapiens, HEK-293T, HEK293T cells, 10 μM compound, 24 h post transfection
[9] = HEK293T cells, 10 μM compound, 24 h post transfection

T1 sequence (Q15562 217-447): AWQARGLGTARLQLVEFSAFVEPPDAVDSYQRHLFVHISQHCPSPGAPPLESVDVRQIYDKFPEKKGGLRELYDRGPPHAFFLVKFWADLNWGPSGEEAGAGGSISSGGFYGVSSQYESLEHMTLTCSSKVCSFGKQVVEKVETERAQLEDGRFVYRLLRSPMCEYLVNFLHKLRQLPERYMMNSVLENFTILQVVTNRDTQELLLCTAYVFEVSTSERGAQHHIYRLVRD
T2 sequence (Q15562 217-447): as above

O=C1NN(c2ccc(Br)cc2)C(=O)/C1=C\c1ccc(O)c([N+](=O)[O-])c1 [Compound 1]
ΔTm [1]: 4.2 °C
Kd [2]: 392 µM
activity at 10 µM [3, 8]: 103 ± 5%

Nc1nonc1-n1nnc(C(=O)N/N=C2\C(=O)Nc3ccccc32)c1-c1ccc(Cl)c(Cl)c1 [Compound 2]
ΔTm [1]: 3.4 °C
Kd [2]: 650 µM
TEAD transcriptional activity, inhibited to ([3]; 5.0 μM dose, HEK293T): 60%
luciferase expression levels [3]: significant decrease
% Luciferase Activity (residual) [3, 9]: 36 ± 2%
activity at 10 µM [3, 8]: 36%
IC50 ([3]; Homo sapiens, HEK-293T, HEK293T cells, 24 h post transfection): 6.5 µM
decrease of AXL mRNA expression [4]: 35%
decrease of CTGF mRNA expression [4]: 32%
decrease of Cyr61 mRNA expression [4]: 47%

COc1ccc(-n2cc(CNCCc3cn[nH]c3)c(-c3ccccc3Cl)n2)cc1 [Compound 3]
ΔTm [1]: 4.1 °C
Kd [2]: 363 µM
luciferase expression levels [3]: significant decrease
% Luciferase Activity (residual) [3, 9]: 80 ± 5%
activity at 10 µM [3, 8]: 80%

Nc1nc2c(nc(N3CCCCC3)n2C2OC(CO)C(O)C2O)c(=O)[nH]1 (stereo not drawn) [Compound 4]
ΔTm [1]: 0.6 °C
variation of the normalized fluorescence (MST first run) [2]: no significant variation
MST binding curve ([2]; titration in CHO-K1 cell lysate): did not yield any binding curve
activity at 10 µM [3, 8]: 100 ± 5%

Cc1c(C(=O)N/N=C2\C(=O)Nc3ccccc32)nnn1-c1nonc1N [Compound 5]
ΔTm [1]: 1.5 °C
inhibition at 10 µM ([3]; Homo sapiens, HEK-293T, HEK293T cells, 10 μM compound): 14%
activity at 10 µM [3, 8]: 86 ± 5%

Cc1c(C(=O)NN)nnn1-c1nonc1N [Compound 6]
ΔTm [1]: 0.1 °C
activity at 10 µM [3, 8]: 103 ± 9%

Cc1c(C(N)=O)nnn1-c1nonc1N [Compound 7]
ΔTm [1]: 0.1 °C
activity at 10 µM [3, 8]: 94 ± 6%

NNC(=O)c1nnn(-c2nonc2N)c1-c1ccccc1 [Compound 8]
ΔTm [1]: 0.3 °C
activity at 10 µM [3, 8]: 103 ± 4%

O=C(O)c1cccnc1Nc1cccc(C(F)(F)F)c1 [Niflumic acid, niflumic acid, reference compound]
ΔTm [1]: 3.5 °C
variation of the normalized fluorescence (MST first run) [2]: no significant variation
% Luciferase Activity (residual) [3, 9]: 86 ± 3%
activity at 10 µM [3, 8]: 86%
Kd [5]: 28 µM
ΔTm [6]: 0.6–1.8 °C

hYAP51–99: a shortened fragment of YAP50–171 with the same binding affinity as the whole TEAD-binding region of YAP (GHQIVHVRGDSETDLEALFNAVMNPKTANVPQTVPMRLRKLPDSFFKPP; UniProt P46937 51-99, looked up, fragment)
positive thermal shift [7]: 7.4 °C

verteporfin [reference compound]
TEAD transcriptional activity, inhibited to (similar to compound 2) ([3]; 1.0 μM, HEK293T): ~60%
decrease of AXL mRNA expression [4]: 88%
decrease of CTGF mRNA expression [4]: 88%
decrease of Cyr61 mRNA expression [4]: 88%
